Data taken from US20220117938A1, “COMBINATON THERAPY WITH A DON PRODRUG AND AN IMMUNE CHECKPOINT INHIBITOR” (DRACEN PHARMACEUTICALS, INC., priority 2019, published 2022).

Test system: MC-38 tumors
Test: Anti-tumor efficacy of Compound 1 in the subcutaneous MC-38 murine colorectal cancer model: dose response (Example 1)
Format: in vivo, Mus musculus
Conditions: for Tumor volume (mm^3), Mean ± SEM: n = 8; for RTV at day 14 / T/C (%) / TGI (%) / Tumor Size (mm^3) at day 14: day 14; for ILS (%) / MST: endpoint tumor volume 2000 mm^3
Experimental: Female C57BL/6 mice were inoculated subcutaneously at right flank with MC-38 cells for tumor development. Four days after tumor inoculation, 64 mice with tumor size ranging from 50-92 mm^3 (average tumor size 63 mm^3) were selected and assigned into 8 groups using stratified randomization with 8 mice per group based upon their tumor volumes. The treatments were started from the day of randomization (defined as D0), Group 1 was treated with Vehicle (Tween 80:Ethanol:Saline—5:5:90 v/v/v), S.C. QD, Group 2 was treated with Compound 1 (0.1 mg/kg), S.C. QD, Group 3 was treated with Compound 1 (0.3 mg/kg), S.C. QD, Group 4 was treated with Compound 1 (0.5 mg/kg), S.C. QD, Group 5 was treated with Compound 1 (1 mg/kg), S.C. QD, Group 6 was treated with Compound 1 (3 mg/kg), S.C. QD*5 days followed by Compound 1 (1 mg/kg), S.C. QD*9 days (2 cycles), Group 7 was treated with Compound 1 (1 mg/kg), S.C. QD*5 days followed by Compound 1 (0.3 mg/kg), S.C. QD*9 days (2 cycles) and Group 8 was treated with Compound 1 (0.15 mg/kg), S.C. BID. The tumor sizes were measured three times per week during the treatment. The entire study was terminated on D74 after start of the treatment.
Animal Species: Mus musculus; Strain: C57BL/6; Age: 6-8 weeks; Sex: female; Body weight (at treatment start): 17-21 g.
The MC-38 tumor cells were maintained in vitro as a monolayer culture in DMEM medium supplemented with 10% heat inactivated fetal bovine serum and 100 μg/mL penicillin streptomycin at 37° C. in an atmosphere of 5% CO2 in air. The tumor cells were routinely subcultured twice weekly by trypsin-EDTA treatment. The cells growing to a confluency around 70%-80% were harvested and counted for tumor inoculation. The cultured MC-38 were harvested, re-suspended in base medium at a density of 1×10^7 cells/mL with viability>90%. Each mouse was inoculated subcutaneously at the right flank with 1×10^6 in 0.1 ml base medium for tumor development.
The treatments were started on day 4 after tumor inoculation when the tumor size reached 50-92 mm^3 (average tumor size 63 mm^3). Each group consisted of 8 tumor bearing mice. The testing article was administrated at a dosing volume of […] to the mice according to the predetermined regimen shown in Table 1-1. Testing article formulations were prepared according to standard procedures. Details regarding tumor measurements and endpoints, and statistical analysis are provided in EXAMPLE 3.
Tumor sizes were measured three times a week in two dimensions using a caliper, and the volume expressed in mm^3 using the formula: V=0.5 a×b^2 where a and b are the long and short diameters of the tumor, respectively. The tumor sizes were then used for the calculations of both tumor growth inhibition (TGI) and T/C values.
TGI is calculated for each group using the formula: […]
TVTreatment_DayN is the average tumor volume of a treatment group on a given day, TVTreatment_Day0 is the average tumor volume of the treatment group on the first day of treatment, TVVehicle_DayN is the average tumor volume of the vehicle control group on a given day, and TVVehicle_Day0 is the average tumor volume of the vehicle group on the first day of treatment.
The T/C value (in percent) is an indication of antitumor effectiveness, T/C (%)=RTVTreatment/RTVControl×100% (RTVTreatment: the mean RTV of the treatment group; RTVControl: the mean RTV of the vehicle treated group). RTV (relative tumor volume)=TVDayN/TVDay0. TVDayN and TVDay0 is the tumor volume on day N and Day 0 respectively. T/C (%)≤42% is considered as significant antitumor activity and <10% is considered as highly significant antitumor activity by the National Cancer Institute criteria.
Animal survival curve: When an individual animal reached to the termination endpoint (TV>2000 mm^3), the mouse was euthanized. The time from treatment initiation to the termination was deemed as its survival time. Survival curve was plotted by Kaplan-Meier method. Median survival time (MST) was calculated for each group. […]

[1] = 1 & 0.3 mg/kg (1 mg/kg QDx5 then 0.3 mg/kg QDx9 S.C.)
[2] = 3 & 1 mg/kg (3 mg/kg QDx5 then 1 mg/kg QDx9 S.C.)
[3] = Treatment (0.1) mg/kg, last line of the table

CC(=O)N[C@@H](Cc1c[nH]c2ccccc12)C(=O)N[C@@H](CCC(=O)C=[N+]=[N-])C(=O)OC(C)C [Compound 1, Isopropyl (S)-2-((S)-2-acetamido-3-(1H-indol-3-yl)propanamido)-6-diazo-5-oxohexanoate]
Tumor volume (mm^3), Mean ± SEM (0.1 mg/kg S.C. QD, Day 0): 62 ± 4 mm^3
Tumor volume (mm^3), Mean ± SEM (0.1 mg/kg S.C. QD, Day 2): 91 ± 10 mm^3
Tumor volume (mm^3), Mean ± SEM (0.1 mg/kg S.C. QD, Day 4): 112 ± 11 mm^3
Tumor volume (mm^3), Mean ± SEM (0.1 mg/kg S.C. QD, Day 7): 183 ± 32 mm^3
Tumor volume (mm^3), Mean ± SEM (0.1 mg/kg S.C. QD, Day 9): 247 ± 40 mm^3
Tumor volume (mm^3), Mean ± SEM (0.1 mg/kg S.C. QD, Day 11): 368 ± 72 mm^3
Tumor volume (mm^3), Mean ± SEM (0.1 mg/kg S.C. QD, Day 14): 744 ± 154 mm^3
RTV at day 14 (0.1 mg/kg S.C. QD): 12.29 ± 7.63
T/C (%) (0.1 mg/kg S.C. QD): 40.26%
TGI (%) (0.1 mg/kg S.C. QD): 62.52%
Tumor Size (mm^3) at day 14 (0.1 mg/kg S.C. QD): 743.79 ± 153.64 mm^3
ILS (%) (0.1 mg/kg): 22%
MST (0.1 mg/kg): 19.5 days
ILS (%) (0.15 mg/kg (BID)): 88%
MST (0.15 mg/kg (BID)): 30 days
Tumor volume (mm^3), Mean ± SEM (0.15 mg/kg S.C. BID, Day 0): 63 ± 5 mm^3
Tumor volume (mm^3), Mean ± SEM (0.15 mg/kg S.C. BID, Day 2): 87 ± 6 mm^3
Tumor volume (mm^3), Mean ± SEM (0.15 mg/kg S.C. BID, Day 4): 109 ± 6 mm^3
Tumor volume (mm^3), Mean ± SEM (0.15 mg/kg S.C. BID, Day 7): 195 ± 28 mm^3
Tumor volume (mm^3), Mean ± SEM (0.15 mg/kg S.C. BID, Day 9): 237 ± 30 mm^3
Tumor volume (mm^3), Mean ± SEM (0.15 mg/kg S.C. BID, Day 11): 288 ± 43 mm^3
Tumor volume (mm^3), Mean ± SEM (0.15 mg/kg S.C. BID, Day 14): 369 ± 56 mm^3
Tumor volume (mm^3), Mean ± SEM (0.3 mg/kg S.C. QD, Day 0): 62 ± 4 mm^3
Tumor volume (mm^3), Mean ± SEM (0.3 mg/kg S.C. QD, Day 2): 76 ± 5 mm^3
Tumor volume (mm^3), Mean ± SEM (0.3 mg/kg S.C. QD, Day 4): 88 ± 7 mm^3
Tumor volume (mm^3), Mean ± SEM (0.3 mg/kg S.C. QD, Day 7): 110 ± 14 mm^3
Tumor volume (mm^3), Mean ± SEM (0.3 mg/kg S.C. QD, Day 9): 143 ± 26 mm^3
Tumor volume (mm^3), Mean ± SEM (0.3 mg/kg S.C. QD, Day 11): 140 ± 29 mm^3
Tumor volume (mm^3), Mean ± SEM (0.3 mg/kg S.C. QD, Day 14): 235 ± 80 mm^3
RTV at day 14 (0.3 mg/kg S.C. QD): 3.83 ± 3.95
T/C (%) (0.3 mg/kg S.C. QD): 12.54%
TGI (%) (0.3 mg/kg S.C. QD): 90.47%
Tumor Size (mm^3) at day 14 (0.3 mg/kg S.C. QD): 235.18 ± 79.89 mm^3
ILS (%) (0.3 mg/kg): 94%
MST (0.3 mg/kg): 31 days
Tumor volume (mm^3), Mean ± SEM (0.5 mg/kg S.C. QD, Day 0): 63 ± 5 mm^3
Tumor volume (mm^3), Mean ± SEM (0.5 mg/kg S.C. QD, Day 2): 79 ± 4 mm^3
Tumor volume (mm^3), Mean ± SEM (0.5 mg/kg S.C. QD, Day 4): 97 ± 8 mm^3
Tumor volume (mm^3), Mean ± SEM (0.5 mg/kg S.C. QD, Day 7): 112 ± 8 mm^3
Tumor volume (mm^3), Mean ± SEM (0.5 mg/kg S.C. QD, Day 9): 109 ± 7 mm^3
Tumor volume (mm^3), Mean ± SEM (0.5 mg/kg S.C. QD, Day 11): 84 ± 9 mm^3
Tumor volume (mm^3), Mean ± SEM (0.5 mg/kg S.C. QD, Day 14): 97 ± 17 mm^3
RTV at day 14 (0.5 mg/kg S.C. QD): 1.63 ± 0.88
T/C (%) (0.5 mg/kg S.C. QD): 5.33%
TGI (%) (0.5 mg/kg S.C. QD): 98.16%
Tumor Size (mm^3) at day 14 (0.5 mg/kg S.C. QD): 96.6 ± 16.6 mm^3
ILS (%) (0.5 mg/kg): 131%
MST (0.5 mg/kg): 37 days
Tumor volume (mm^3), Mean ± SEM (1 mg/kg QDx5 then 0.3 mg/kg QDx9 S.C., 2 cycles, Day 0): 63 ± 4 mm^3
Tumor volume (mm^3), Mean ± SEM (1 mg/kg QDx5 then 0.3 mg/kg QDx9 S.C., 2 cycles, Day 2): 73 ± 5 mm^3
Tumor volume (mm^3), Mean ± SEM (1 mg/kg QDx5 then 0.3 mg/kg QDx9 S.C., 2 cycles, Day 4): 85 ± 7 mm^3
Tumor volume (mm^3), Mean ± SEM (1 mg/kg QDx5 then 0.3 mg/kg QDx9 S.C., 2 cycles, Day 7): 97 ± 10 mm^3
Tumor volume (mm^3), Mean ± SEM (1 mg/kg QDx5 then 0.3 mg/kg QDx9 S.C., 2 cycles, Day 9): 101 ± 9 mm^3
Tumor volume (mm^3), Mean ± SEM (1 mg/kg QDx5 then 0.3 mg/kg QDx9 S.C., 2 cycles, Day 11): 116 ± 19 mm^3
Tumor volume (mm^3), Mean ± SEM (1 mg/kg QDx5 then 0.3 mg/kg QDx9 S.C., 2 cycles, Day 14): 119 ± 22 mm^3
Tumor volume (mm^3), Mean ± SEM (1 mg/kg S.C. QD, Day 0): 62 ± 4 mm^3
Tumor volume (mm^3), Mean ± SEM (1 mg/kg S.C. QD, Day 2): 74 ± 5 mm^3
Tumor volume (mm^3), Mean ± SEM (1 mg/kg S.C. QD, Day 4): 85 ± 5 mm^3
Tumor volume (mm^3), Mean ± SEM (1 mg/kg S.C. QD, Day 7): 94 ± 5 mm^3
Tumor volume (mm^3), Mean ± SEM (1 mg/kg S.C. QD, Day 9): 100 ± 7 mm^3
Tumor volume (mm^3), Mean ± SEM (1 mg/kg S.C. QD, Day 11): 80 ± 8 mm^3
Tumor volume (mm^3), Mean ± SEM (1 mg/kg S.C. QD, Day 14): 68 ± 12 mm^3
RTV at day 14 (1 mg/kg S.C. QD): 1.13 ± 0.67
T/C (%) (1 mg/kg S.C. QD): 3.71%
TGI (%) (1 mg/kg S.C. QD): 99.69%
Tumor Size (mm^3) at day 14 (1 mg/kg S.C. QD): 68.23 ± 12.12 mm^3
ILS (%) (1 mg/kg, then 0.3 mg/kg): 131%
MST (1 mg/kg, then 0.3 mg/kg): 37 days
ILS (%) (1 mg/kg): 144%
MST (1 mg/kg): 39 days
Tumor volume (mm^3), Mean ± SEM (3 mg/kg QDx5 then 1 mg/kg QDx9 S.C., 2 cycles, Day 0): 63 ± 5 mm^3
Tumor volume (mm^3), Mean ± SEM (3 mg/kg QDx5 then 1 mg/kg QDx9 S.C., 2 cycles, Day 2): 70 ± 3 mm^3
Tumor volume (mm^3), Mean ± SEM (3 mg/kg QDx5 then 1 mg/kg QDx9 S.C., 2 cycles, Day 4): 83 ± 7 mm^3
Tumor volume (mm^3), Mean ± SEM (3 mg/kg QDx5 then 1 mg/kg QDx9 S.C., 2 cycles, Day 7): 87 ± 8 mm^3
Tumor volume (mm^3), Mean ± SEM (3 mg/kg QDx5 then 1 mg/kg QDx9 S.C., 2 cycles, Day 9): 90 ± 6 mm^3
Tumor volume (mm^3), Mean ± SEM (3 mg/kg QDx5 then 1 mg/kg QDx9 S.C., 2 cycles, Day 11): 79 ± 10 mm^3
Tumor volume (mm^3), Mean ± SEM (3 mg/kg QDx5 then 1 mg/kg QDx9 S.C., 2 cycles, Day 14): 43 ± 4 mm^3
ILS (%) (3 mg/kg, then 1 mg/kg): 131%
MST (3 mg/kg, then 1 mg/kg): 37 days
RTV at day 14 [1]: 1.85 ± 0.82
T/C (%) [1]: 6.05%
TGI (%) [1]: 96.95%
Tumor Size (mm^3) at day 14 [1]: 118.69 ± 21.92 mm^3
RTV at day 14 [2]: 0.69 ± 0.16
T/C (%) [2]: 2.27%
TGI (%) [2]: 101.09%
Tumor Size (mm^3) at day 14 [2]: 42.91 ± 3.89 mm^3
RTV at day 14 [3]: 5.99 ± 2.92
T/C (%) [3]: 19.62%
TGI (%) [3]: 83.19%
Tumor Size (mm^3) at day 14 [3]: 369.41 ± 56.37 mm^3
